In US20070027143A1, “Novel substituted 2,3-benzodiazepine derivatives” (priority 2003, published 2007):
Like-named read-outs stand apart in the source and are kept apart here. Marks after values point to notes of the source that are not given here.

What was measured:
Assay type in all cases: in vivo
CD1 mice [1] = test: Anticonvulsant activity, pentetrazole induced seizures; conditions: Mus musculus; po.; read-out: Pentetrazol ED50
Protocol: (§1) The anti-seizure activity of some of the compounds of the present invention was measured using the electroshock test (J. Pharmacol. Exp. Ther. 106:319 (1952)) and the results are shown in Table 3. The spasmolytic activity of the compounds of the present invention was investigated by using e.g., pentetrazole (J. Pharmacol. Exp. Ther. 108:168 (1953)), strychnine (J. Pharmacol. Exp. Ther. 129:75 (1960)), bemegrid, nicotine, bicuculline, 4-aminopyridine and mercapto-propionic acid for inducing the clonic-tonic seizures and lethality. The investigated compounds were administered orally in three doses using 10 male CD1 mice/dose, usually 60 min before the induction of seizures.

CD1 mice [2] = test: Anticonvulsant activity, strychnine induced seizures; conditions: Mus musculus; po.; read-out: Strychnine ED50
Protocol: as §1

CD1 mice [3] = test: Anticonvulsant activity, bicuculline induced seizures; conditions: Mus musculus; po.; read-out: Bicuculline ED50
Protocol: as §1

CD1 mice [4] = test: Anticonvulsant activity, nicotine induced seizures; conditions: Mus musculus; po.
Protocol: as §1

CD1 mice [5] = test: Anticonvulsant activity, 4-aminopyridine induced seizures; conditions: Mus musculus; po.; read-out: 4-AP ED50
Protocol: as §1

CD1 mice [6] = test: Anticonvulsant activity, 3-mercapto-propionic acid induced seizures; conditions: Mus musculus; po.; read-out: 3-MPA ED50
Protocol: as §1

CD1 mice [7] = test: Muscle relaxant activity, inclined screen test; conditions: Mus musculus, ip
rats = test: Inhibition of focal ischemia, middle cerebral artery occlusion (MCAO) test
Protocol: The focal anti-ischemic activity of the compounds of formula (I) or (II) of the present invention was measured by the “middle cerebral artery occlusion” (MCAO) test (Bartus Stroke 11:2265 (1994) and Sydserff et al, Brit. J. Pharmacol. 114:1631 (1995)). […] After a histological process (TTC staining) 24 h later, the infarcted area was determined by a computer assisted scanner program and was compared to the results obtained in a control group treated with the vehicle.

Lewis rats = test: Autoimmune encephalomyelitis model, neurological (clinical) symptoms; conditions: for Neurological symptoms (change, %): day 24 after immunization; for change in vivo at 15 mg/kg / change in vivo at 30 mg/kg / change in vivo at 0.2 mg/kg / change in vivo at 0.5 mg/kg / change in vivo at 1 mg/kg / change in vivo at 1.875 mg/kg / change in vivo at 3.75 mg/kg: Rattus norvegicus, read-out: Neurological symptoms (change compared to controls, %); for change in vivo at 15 mg/kg: 15 mg/kg ip.
Protocol: The compounds were administered intraperitoneally twice a day for 8 days, starting on day 10 after immunization and with an observation period until symptoms were present. 5-15 animals were used in each group. Their weights were 160-180 g (Lewis rats, female) and 180-220 g (Lewis rats, male). The activity of the compounds was determined according to the symptom score values, and compared to those of the control group (see Table 6). Histopathological investigations were carried out on the brain stem, the spinal cord, and the sciatic nerve (Gijbels et al., J. Clin. Invest. 94:2177 (1994)) using 5-10 animal/group.
Compounds of the invention were further investigated in the autoimmune encephalomyelitis model in rats as outlined in this description before, with the variance that 10 animals were used in each group, of weights 140-160 g (Lewis rats, female).

CD1 mice [8] = test: Anti-tremor effect, oxotremorine induced tremor; conditions: Mus musculus; po., Litchfield-Wilcoxon, limits in brackets; read-out: ED50, tremor induced by Oxotremorin 1 mg/kg ip.
CD1 mice [9] = test: Anti-tremor effect, GYKI 20039 induced tremor; conditions: Mus musculus; po., Litchfield-Wilcoxon, limits in brackets; read-out: ED50, tremor induced by GYKI 20039 10 mg/kg ip.
BN rats [10] = test: Bronchial hyperresponsiveness of ovalbumin sensitized, antigen challenged BN rats (tracheal rings, acetylcholine); conditions: 3.0 mg/kg po, 2 hours pre-challenge, mean ± SE
Description: (§2) Bronchial hyperresponsiveness (BHR) and airway eosinophilia (AEP) are characteristic features of bronchial asthma. BHR is typified by an exaggerated response to a wide variety of stimuli that can induce an increased resistance to airflow in the airways. AEP is a result of prolonged eosinophil infiltration, mast cell, and T cell activation in the airways. In actively (e.g., ovalbumin) immunized rats (e.g., Brown Norway [BN] strain), repeated sensitization followed by antigenic challenge results in lung eosinophilia and bronchial hyperresponsiveness to different spasmogens (e.g., acetylcholine). This is the most frequently employed model for studying potential anti-asthmatic effects of new chemical entities.
(§3) BN rats were actively immunized with allergen (ovalbumin). On day one, rats were sensitized with the subcutaneous administration of ovalbumin suspended in Al(OH)3 (2.5 μg ovalbumin +20 mg Al(OH)3 in 0.5 ml saline). Booster injections (same dose and same route) were given at day 14 and 21. Simultaneously at each occasion 0.25 ml of Bordatella pentussis vaccine was injected intraperitoneally. On day 28, animals were challenged by inhalation of the antigen (vaporized 1% OVA solution for 1 hour). Test compounds were administered orally 2 hours pre-challenge.
(§4) 48 hours following challenge, they were sacrificed by an overdose of urethane (4-5 ml of 15% urethane given i.p.), bronchoalveolar lavage fluid (BALF) was obtained, and tracheae dissected from the animals. Eosinophil cell count (cells/ml BALF) was determined manually using a selective stain for eosinophils and counting the cells in a Buerker chamber. BHR was determined using tracheal rings suspended in an organ bath. After an equilibration period of 30 minutes, cumulative concentration response curves to acetylcholine were determined. Maximal response of control (unchallenged, non-treated) tracheal rings is obtained at 10^−3 M acetylcholine. The height of this response is defined as 100%. All other contractions are expressed as a percentage and related to the control response.

BN rats [11] = test: Airway eosinophilia of ovalbumin sensitized, antigen challenged BN rats (BALF eosinophil count); conditions: 3.0 mg/kg po, 2 hours pre-challenge, mean ± SE
Description: as §2, §3, §4

[12] = 2 mg/kg iv. 6x in every 30 min, first treatment 120 min after occlusion
[13] = 2 mg/kg iv. 6x in every 30 min, first treatment 180 min after occlusion

CC(=O)N1N=C(c2ccc(N)cc2)c2cc3c(cc2C[C@H]1C)OCO3 [GYKI 53773, (R)-7-acetyl-5-(4-aminophenyl)-8,9-dihydro-8-methyl-7H-1,3-dioxolo[4,5-h][2,3]benzodiazepine, reference compound]
ED50 (CD1 mice [1]): 16.8 mg/kg
ED50 (CD1 mice [2]): 17.4 mg/kg
ED50 (CD1 mice [3]): 14.6 mg/kg
ED50 (CD1 mice [4]): 22.7 mg/kg
ED50 (CD1 mice [5]): 8.4 mg/kg
ED50 (CD1 mice [6]): 17.1 mg/kg
ED50 (CD1 mice [7]): 13.4 mg/kg
Decrease of the infracted area in % compared to that of the control (rats; 2 mg/kg iv. 6x in every 30 min, first treatment 30 min after occlusion): 47* %
Decrease of the infracted area in % compared to that of the control (rats; [12]): 49** %
Decrease of the infracted area in % compared to that of the control (rats; [13]): 26%
Neurological symptoms (change, %) (Lewis rats; 30 mg/kg ip., female rats): −41%
Neurological symptoms (change, %) (Lewis rats; 30 mg/kg ip., male rats): −26%
change in vivo at 15 mg/kg (Lewis rats; ip, female rats, 0-8 day): -60%
change in vivo at 15 mg/kg (Lewis rats; ip, female rats, 0-14 day): -63%
change in vivo at 15 mg/kg (Lewis rats; ip, male rats, 0-8 day): -8%
change in vivo at 15 mg/kg (Lewis rats; ip, male rats, 0-14 day): 7%
change in vivo at 30 mg/kg (Lewis rats; ip, 30 mg/kg ip., female rats, 0-8 day): -38%
change in vivo at 30 mg/kg (Lewis rats; ip, 30 mg/kg ip., female rats, 0-14 day): -27%
change in vivo at 30 mg/kg (Lewis rats; ip, 30 mg/kg ip., male rats, 0-8 day): -43%
change in vivo at 30 mg/kg (Lewis rats; ip, 30 mg/kg ip., male rats, 0-14 day): -29%
ED50 (CD1 mice [8]): 5.6 mg/kg
ED50 (CD1 mice [9]): 10.6 mg/kg
MAX: relative contraction compared to the control at a maximal Ach concentration (BN rats [10]): 85 ± 43%
BALF eosinophil number (BN rats [11]): 1.29 ± 0.11 ×10^6/ml

Cc1nnc(N2N=C(c3ccc(N)c(C)c3)c3cc4c(cc3C[C@H]2C)OCO4)s1 [Example 119, (R)-5-(4-amino-3-methylphenyl)-8-methyl-7-(5-methyl-1,3,4-thiadiazol-2-yl)-8,9-dihydro-7H-1,3-dioxolo-[4,5-h][2,3]benzodiazepine]
ED50 (CD1 mice [1]): 5 mg/kg
ED50 (CD1 mice [2]): 8.4 mg/kg
ED50 (CD1 mice [3]): 2.5 mg/kg
ED50 (CD1 mice [4]): 6.3 mg/kg
ED50 (CD1 mice [5]): 2.68 mg/kg
ED50 (CD1 mice [6]): 3.37 mg/kg
ED50 (CD1 mice [7]): 2.49 mg/kg
Decrease of the infracted area in % compared to that of the control (rats; 0.5 mg/kg iv. 6x in every 30 min, first treatment 120 min after occlusion): 7%
Decrease of the infracted area in % compared to that of the control (rats; 1 mg/kg iv. 6x in every 30 min, first treatment 120 min after occlusion): 38%
Decrease of the infracted area in % compared to that of the control (rats; 1.5 mg/kg iv. 6x in every 30 min, first treatment 120 min after occlusion): 51* %
Decrease of the infracted area in % compared to that of the control (rats; 1.5 mg/kg iv. 6x in every 30 min, first treatment 180 min after occlusion): 21%
Decrease of the infracted area in % compared to that of the control (rats; [12]): 56* %
Decrease of the infracted area in % compared to that of the control (rats; [13]): 44** %
Decrease of the infracted area in % compared to that of the control (rats; 2.0 mg/kg iv. 6x in every 30 min, first treatment 240 min after occlusion): 21%
Neurological symptoms (change, %) (Lewis rats; 0.2 mg/kg i.p., female rats): −37%
Neurological symptoms (change, %) (Lewis rats; 0.5 mg/kg i.p., female rats): −35%
Neurological symptoms (change, %) (Lewis rats; 0.5 mg/kg p.o., female rats): −1%
Neurological symptoms (change, %) (Lewis rats; 1.0 mg/kg i.p., female rats): −72** %
Neurological symptoms (change, %) (Lewis rats; 1.0 mg/kg p.o., female rats): −23%
Neurological symptoms (change, %) (Lewis rats; 1.875 mg/kg ip., female rats): −71** %
Neurological symptoms (change, %) (Lewis rats; 1.875 mg/kg p.o., female rats): −50** %
Neurological symptoms (change, %) (Lewis rats; 3.75 mg/kg ip., female rats): −90** %
Neurological symptoms (change, %) (Lewis rats; 3.75 mg/kg p.o., female rats): −61*** %
change in vivo at 0.2 mg/kg (Lewis rats; ip, 0.2 mg/kg i.p., female rats, 0-8 day): -36%
change in vivo at 0.2 mg/kg (Lewis rats; ip, 0.2 mg/kg i.p., female rats, 0-14 day): -37%
change in vivo at 0.5 mg/kg (Lewis rats; ip, 0.5 mg/kg i.p., female rats, 0-8 day): -33%
change in vivo at 0.5 mg/kg (Lewis rats; ip, 0.5 mg/kg i.p., female rats, 0-14 day): -35%
change in vivo at 1 mg/kg (Lewis rats; ip, 1.0 mg/kg i.p., female rats, 0-8 day): -75%
change in vivo at 1 mg/kg (Lewis rats; ip, 1.0 mg/kg i.p., female rats, 0-14 day): -72%
change in vivo at 1.875 mg/kg (Lewis rats; ip, 1.875 mg/kg ip., female rats, 0-8 day): -72%
change in vivo at 1.875 mg/kg (Lewis rats; ip, 1.875 mg/kg ip., female rats, 0-14 day): -71%
change in vivo at 3.75 mg/kg (Lewis rats; ip, 3.75 mg/kg ip., female rats, 0-8 day): -97%
change in vivo at 3.75 mg/kg (Lewis rats; ip, 3.75 mg/kg ip., female rats, 0-14 day): -90%
change in vivo at 0.5 mg/kg (Lewis rats; po, 0.5 mg/kg p.o., female rats, 0-8 day): 2%
change in vivo at 0.5 mg/kg (Lewis rats; po, 0.5 mg/kg p.o., female rats, 0-14 day): -1%
change in vivo at 1 mg/kg (Lewis rats; po, 1.0 mg/kg p.o., female rats, 0-8 day): -20%
change in vivo at 1.875 mg/kg (Lewis rats; po, 1.875 mg/kg p.o., female rats, 0-8 day): -50%
change in vivo at 1.875 mg/kg (Lewis rats; po, 1.875 mg/kg p.o., female rats, 0-14 day): -50%
ED50 (CD1 mice [8]): 1.38 mg/kg
ED50 (CD1 mice [9]): 2.21 mg/kg
MAX: relative contraction compared to the control at a maximal Ach concentration (BN rats [10]): 82 ± 7%
pEC50 of acetylcholine (BN rats [10]): 4.35 ± 0.36 −log M
BALF eosinophil number (BN rats [11]): 1.16 ± 0.24 ×10^6/ml
